From patent US20030207843A1, “Treatment of drug-resistant human immunodeficiency virus infection” (priority 1999, published 2003) come the findings set out here.

Experiment [1] concerns HIV-1LAI M41L/T215Y. Description: p24 reduction assay in MT-2 cells, M41L/T215Y. The format is cell-based. Conditions: for EC50: M41L/T215Y; for Fold-resistance: M41L/T215Y relative to wild type virus. On the procedure: (§1) Cells. MT-2 cells (AIDS Research and Reference Reagent Program, National Institute of Allergy and Infectious Diseases, National Institutes of Health) were maintained in RPMI 1640 supplemented with 10% fetal bovine serum (FBS; JRH Biosciences, Lenexa, Kans.), 10 mM HEPES buffer, 50 IU/ml penicillin and 50 μg/ml streptomycin.
(§2) Antiviral Susceptibility Assays. The antiviral activity of each compound was determined by inoculating MT-2 cells with HIV-1LAI at a multiplicity of infection (MOI) of 0.01 TCID50/cell, followed by incubation in the presence of three-fold serial drug dilutions (3 wells per dilution) (see Mellors, et. al., Antimicrob. Agents Chemother. 39:1087-1092). Five or seven days after infection, culture supernatants were harvested, lysed with 0.5% triton-X 100 and assayed for p24 antigen concentration using a commercial ELISA assay (DuPont, NEN Products, Wilmington, Del.). The antiviral activity of the compounds is expressed as the IC50, which is the concentration required to inhibit 50% of p24 antigen production. The fold-resistance of a test virus is calculated by dividing the IC50 of the test virus by the IC50 of the HIV-1LAI control virus.
(§3) Generation of Mutant Recombinant HIV-1. HIV-1 containing the desired mutations were generated by oligonucleotide directed mutagenesis (Altered Sites II, Promega) as previously described (Mellors, et. al., Molecular Pharm. 41:446-451). After mutagenesis, mutant RT was subcloned into the pxxHIV-1LAI cloning vector using the silent XmaI and XbaI restriction sites located at the 5′ and 3′ ends of RT. Clones were DNA sequenced to verify the presence of the desired mutation(s) and electroporated into MT-2 cells as described above to generate infectious mutant recombinant HIV-1.
(§4) Mutant RT was generated via oligonucleotide-directed mutagenesis and ligated into the pXXHIV-1LAI cloning vector. Cloning was facilitated by the presence of two silent restriction sites at the 5′ and 3′ ends (Xma1 and Xba1, respectively) of pXXHIV-1LAI RT. Infectious mutant recombinant HIV-1 was generated by electroporating MT-2 cells with mutated pXXHIV-1LAI clones. The presence of the desired mutations was verified by DNA sequencing.
(§5) The multi-drug resistant HIV-1 strains, 11163p1 and 11588p1, are human clinical isolates having the RT mutations indicated. HIV-1 strains treated with the lipid analogs of the present invention include wild type, e.g., xxLAI, and the like, single mutation, e.g., xxLAI MI 84V (resistant to 3TC), xxLAI L74V (resistant to ddI and ddC), xxLAI K65R (resistant to ddI, ddC, DAPD, DXG, tenofovir, and adefovir), xxLAI T215Y (resistant to AZT), and the like, double mutations, e.g., xxLAI M41 L/T215Y (resistant to AZT), xxLAI MI 84V/T215Y (resistant to 3TC and AZT), and the like, and multiple mutations, e.g., xxLAI 4XAZT ((D67N, K70R, T215Y, K219Q) resistant to AZT)), xxLAI 4XAZT/M184V ((D67N, K70R, M 184V, T215Y, K219Q) resistant to AZT and 3TC), xxLAI M5456-12 (AZT+NNRTI resistant: D67N, K70R, K103N, T215Y), xxLAI G2-3g (AZT/3TC co-resistant: M41L, D67N, M184V, H208Y, L210W, R211K, L214F, T215Y, 1293V, E297A), 11163 (multinucleoside resistant virsus: M41L, A62V, V751, F77L, K103N, F116Y, Q151M, Y181C, M184V), 11588 (multinucleoside resistant virsus: A62V, K65R, K70R, V751, F77L, F116Y, Q151M, M184V, K219Q), and the like.

In experiment [2] the test system is multidrug-resistant HIV-1 clinical isolate 11588p1. Description: p24 reduction assay in MT-2 cells, 11588p1. The format is cell-based. On the procedure:
as §1
as §2, with “[…],” for “was determined by inoculating MT-2 cells with HIV-1LAI at a multiplicity of infection (MOI) of 0.01 TCID50/cell,”
as §5

Experiment [3] concerns NL4-3 (wild type virus). Put plainly: p24 reduction assay in MT-2 cells, NL4-3. The format is cell-based, HIV-1.
Experiment [4] concerns 9GC (multinucleoside resistant recombinant virus D67E, S68T, T69S[SA insert], T215Y). Description: p24 reduction assay in MT-2 cells, virus 9GC. The format is cell-based, HIV-1. As to conditions: Table 4; for Fold-resistance: virus 9GC relative to wild type virus; for EC50: virus 9GC, mean ± SD. On the procedure: as §1, §2
The MNR panel consisted of a virus containing the mutations V75I, F77L, F116Y and […], a virus containing the T69S[SA insert], and a clinical isolate carrying the classic MNR genotype (62V/751/77L/116Y/151M). Each of the PFA invention compounds retained potency against these viruses with fold resistance values of <2.

Experiment [5] concerns HIV-1LAI E89G. Put plainly: p24 reduction assay in MT-2 cells, E89G. As to conditions: Table 7; for EC50: E89G; for Fold-resistance: E89G relative to wild type virus. The format is cell-based. The protocol: as §1, §2, §3, §4
(§6) Invention compounds were also evaluated against a panel of HIV-1LAI derived recombinants resistant to PFA and the PFA invention compounds, as shown in Table 7.

Experiment [6] deals with HIV-1LAI Q161L/H208Y. Description: p24 reduction assay in MT-2 cells, Q161L/H208Y. Conditions: Table 7; for EC50: Q161L/H208Y; for Fold-resistance: Q161L/H208Y relative to wild type virus. The format is cell-based. The protocol:
as §1, §2, §3, §4, §6

Experiment [7] deals with HIV-1LAI 4XAZT/W88S. Put plainly: p24 reduction assay in MT-2 cells, 4XAZT/W88S. The format is cell-based. As to conditions: Table 7; for EC50: 4XAZT/W88S; for Fold-resistance: 4XAZT/W88S relative to wild type virus. On the procedure: as §1, §2, §3, §4, §6
Experiment [8] has as its system HIV-1LAI 4XAZT/E89K. Put plainly: p24 reduction assay in MT-2 cells, 4XAZT/E89K. Conditions: Table 7; for EC50: 4XAZTE89K; for Fold-resistance: 4XAZTE89K relative to wild type virus. The format is cell-based. On the procedure:
as §1, §2, §3, §4, §6

Where [9] appears, read: Human immunodeficiency virus 1, MT2.

Structures are written as SMILES.

On to `CCCCCCCCCCCCCCCCCCOC[C@@H](O)COP(=O)(O)C(=O)O` [B-PFA, 1-O-octadecyl-sn-glycero-3-PFA], for which the EC50 was 1.25 µM in experiment [1] (Table 1, MOI 0.01); 0.94 ± 1.08 µM in experiment [1] (Table 5, mean ± SD); 9.31 µM in experiment [2] (Table 2, MOI 0.05); 2.6 ± 1.5 µM in experiment [3] (Table 4, mean ± SD); 4.1 ± 1.2 µM in experiment [4]; > 30 µM in experiment [5]. For the same compound, the EC50 in experiment [6] was > 30 µM; in experiment [7], 4.09 µM; in experiment [8], 17.4 µM. Also, the Fold-resistance result is “(0.5)” in experiment [1] (Table 5); “(1.6)” in experiment [4]; “(>17.2)” in experiment [5]; “(>17.2)” in experiment [6]; 1.84 (1.6) in experiment [7]; 14.9 (6.6) in experiment [8].
For `CCCCCCCCCCCCCCCCCCOC[C@H](COP(=O)(O)C(=O)O)OCC` [EB-PFA, 1-O-octadecyl-2-O-ethyl-sn-glycero-3-PFA], the EC50 in experiment [1] (Table 1, MOI 0.01) was 0.41 µM; in experiment [1] (Table 5, mean ± SD), 0.3 ± 0.35 µM; in experiment [2] (Table 2, MOI 0.05), 0.73 µM; in experiment [3] (Table 4, mean ± SD), 0.2 ± 0.2 µM; in experiment [4], 0.2 ± 0.3 µM; in experiment [5], > 26.1 µM. Also, the figures for the EC50 in experiment [6], in experiment [7] and in experiment [8] were 7.02 µM, 1.51 µM and 4.39 µM, respectively. Besides, the Fold-resistance entry in experiment [1] (Table 5) is on record as “(0.5)”; in experiment [4] it was “(0)”; in experiment [5], “(>29.0)”; in experiment [7], 0.21 (1.9); in experiment [8], 4.59 (5.6).
Consider `CCCCCCCCCCCCCCCCCCOC[C@H](COP(=O)(O)C(=O)O)OC` [MB-PFA, 1-O-octadecyl-2-O-methyl-sn-glycero-3-PFA], for which the EC50 in experiment [1] (Table 1, MOI 0.01) is 0.13 µM; in experiment [1] (Table 5, mean ± SD), 0.18 ± 0.11 µM; in experiment [2] (Table 2, MOI 0.05) it was 1.16 µM; in experiment [3] (Table 4, mean ± SD) it was 2.3 ± 1.9 µM; in experiment [5], > 30 µM; in experiment [6], 12.8 µM. Also, the EC50 is 1.54 µM in experiment [7] and 9.28 µM in experiment [8]. In addition, the Fold-resistance result is recorded as “(0.4)” in experiment [1] (Table 5); “(0)” in experiment [4]; “(>39.0)” in experiment [5]; 9.00 (17.7) in experiment [6]; 0.81 (1.8) in experiment [7]; 9.20 (11.1) in experiment [8].
As to `O=C(O)P(=O)(O)O` [PFA, phosphonoformate, reference compound], the EC50 in experiment [1] (Human immunodeficiency virus 1, MT2, Table 1, MOI 0.01) was 16.2 µM; in experiment [1] (Human immunodeficiency virus 1, MT2, Table 5, mean ± SD), 13.9 ± 4.14 µM; in experiment [2] (Human immunodeficiency virus 1, MT2, Table 2, MOI 0.05) it was 23.5 µM; in experiment [3] (Human immunodeficiency virus 1, NL43, MT2, Table 4, mean ± SD), 15.1 ± 6.1 µM; in experiment [4] (setting [9]), 13.2 ± 12.8 µM; in experiment [5] (setting [9]), 241 µM. Besides, the EC50 in experiment [6] (setting [9]) was found to be 126 µM; in experiment [7] (setting [9]), 18.4 µM; in experiment [8] (setting [9]), 134 µM. The Fold-resistance result in experiment [1] (Table 5) is given as “(0.8)”; in experiment [4], “(1.1)”; in experiment [7], 10.40 (1.0).
